Measurements: patent US20220308068A1, “BIOMARKER IN OSTEOPOROSIS INTERVENTION THERAPY BY BONE PEPTIDE, SCREENING METHOD AND USE THEREOF” (Institute of Food Science and Technology, Chinese Academy …, priority 2019, published 2022)

System: ovariectomized osteoporosis rat model
Experiment: H&E staining of right tibias
Assay type: in vivo, SD rats
Conditions: right tibia, 12 weeks of intervention treatment
Experimental: 1, the construction of ovariectomized rats models: SD rats are kept in a clean environment under a controlled room temperature at 25±2° C. and alternates 12/12 light and dark every day, and the SD rats feed freely. After one week adaptive feeding, randomly select 8 female rats, anesthetize them with 1% (v/v) pentobarbital sodium (40 mg/kg BW), and remove a little fat near ovaries. The remaining 40 rats are ovariectomized after being anesthetized with pentobarbital sodium. The recovery situation is observed in a 4-week recovery period, and their weight changes are detected. These are prepared by the applicant in advance. (any research about metabolic fingerprint changes of ovariectomized osteoporotic rats after intervention with bone peptide have not been reported according to the existing literature). 2, animal grouping and samples collection: the 8 female rats with a little fat near ovaries removed are selected as a sham-operated group, the ovariectomized 40 rats are randomly divided into 5 groups with 8 rats in each group, and are named by a negative control group, a positive control group, a low-concentration treatment group, a medium-concentration treatment group and a high-concentration treatment group. The rats are perfused by different solutions of bovine bone peptide (diluted by ultrapure water, and sterilized) with concentration of 100 mg/kg, 200 mg/kg, and 500 mg/kg according to the weights of the rats. The rats in the negative control group are perfused with equal volume of ultrapure sterile water (a perfusing volume is generally 1-2 mL/100 g BW), and the rats in the positive control group are perfused with 50 μg/kg of 17β-estradiol (ES). Observe weight changes of the rats and measure the weights every two weeks. After perfusing experiment, the rats are sacrificed in accordance with the animal welfare operating procedures, femurs and tibias on both sides are taken, and soft tissues such as muscle and fascia attached to bone tissues are removed. The right tibias are subjected to paraffin-embedded H&E staining treatment after fixing in a phosphate-formalin buffer for 24 hours for morphometric analysis of the tibias of the rats. Left femurs and right femurs is soaked with normal saline, washed repeatedly for 3 times, wrapped with medical gauzes (pre-soaked with normal saline) and tinfoil, and then stored in a −20° C. refrigerator for trabecular bone microstructure (micro-CT scanning) and mechanical strength tests of bone biomechanical indexes (three-point bending test). […]

## C[C@]12CC[C@@H]3c4ccc(O)cc4CC[C@H]3[C@@H]1CC[C@@H]2O [ES, 17β-estradiol]
  trabecular bone area: significantly increased
  trabecular bone connection: tighter
  trabecular bone spacing: smaller
  trabecular bone width: wider
